Results from article PMC8661032, “Broad-Spectrum Antibacterial Peptide Kills Extracellular and Intracellular Bacteria Without Affecting Epithelialization” (Frontiers in Microbiology, 2021).
Values after ≈ are worked out from the molar mass of the structure shown. Read-outs that look alike come from different tables or passages of the source. Residues, ends and D or L forms follow the SMILES beside them.

Legend:
[1] = test system: E. coli K-12 MG1655; assay: Resistance development assay (serial passage), E. coli; type: cell-based, Escherichia coli; settings: serial passage at sub-MIC in CAMHB, 32 days
Text: (§1) Bacteria (E. coli K-12 MG1655 and S. aureus ATCC 29213 and SO-SAU19-1) were serial passaged in CAMHB as described by [Silverman et al. (2001)] with some small modifications.

[2] = test system: E. faecium; assay: microbe, parasite or virus in culture; settings: for MIC: Enterococcus faecium
Description: (§2) Briefly, bacterial colonies from blood agar plates were suspended and grown in Cation-Adjusted Mueller-Hinton Broth (CAMHB, […] Ca^2+, […] Mg^2+). The bacterial suspension was adjusted to 0.5 McFarland standard (∼1 × 10^8 colony-forming units (CFU)/ml) and serial diluted 1:200 in CAMHB (∼5 × 10^5 CFU/mL). […] The suspension was plated out on blood agar plates to confirm the CFU/ml. Both the microtiter plates and the blood agar plates were incubated at 37°C for 24 h.

[3] = test system: E. coli; assay: microbe, parasite or virus in culture; settings: for MIC: Escherichia coli
Description: as §2

[4] = test system: E. cloacae; assay: microbe, parasite or virus in culture; settings: Enterobacter cloacae, 24 h
Description: as §2

[5] = test system: K. pneumoniae; assay: microbe, parasite or virus in culture; settings: for MIC: Klebsiella pneumoniae
Description: as §2

[6] = test system: P. aeruginosa; assay: microbe, parasite or virus in culture; settings: for MIC: Pseudomonas aeruginosa
Description: as §2

[7] = test system: S. aureus; assay: microbe, parasite or virus in culture; settings: Staphylococcus aureus
Description: as §2

[8] = test system: A. baumannii; assay: microbe, parasite or virus in culture; settings: for MIC: Acinetobacter baumannii
Description: as §2

[9] = test system: S. aureus ATCC 29213 and SO-SAU19-1; type: cell-based, Staphylococcus aureus
Text: as §1

[10] = test system: E. faecalis; assay: microbe, parasite or virus in culture; settings: for MIC: Enterococcus faecalis
Description: as §2

[11] = test system: E. coli; assay: Growth inhibition assay (OD600 over 24 h); type: cell-based, Escherichia coli; parameters: Reduction of viability E. coli (60 μg/ml): key to the marks not given beside the values; settings: 60 μg/ml peptide, LB medium, OD600 every hour over 24 h, relative to untreated control
Description: An overnight culture of Escherichia coli was diluted 1:100 in Luria-Bertani (LB) medium and allowed to grow until an optical density (OD) at 600 nm (OD600) of 0.06–0.1. APIM-peptides were prepared by serial dilution in Milli-Q H2O and kept at 4°C. Fresh LB medium (60 μl) was added to a flat-bottom microtiter plate. The bacterial suspension was diluted 1:100 in LB, and 75 μl of this suspension was added to the wells. Finally, 15 μl of APIM-peptide solution (to final concentrations 60, 120, and 240 μg/ml) or distilled water (positive control) was added to the wells, reaching a total volume of 150 μl per well. Data are presented only for the dose that separated the effect of the different peptides, i.e., 60 μg/ml. A blank sterile medium was used as negative control. The plates were incubated with shaking at 510 rpm at 37°C inside a plate reader (TECAN, Spark®), and OD was read every hour over a period of 24 h.
The MIC for E. coli in LB medium is higher than that in CAMHB; thus, concentrations higher than the MIC given in Table 2 are used in the growth inhibition and mutagenesis assays. […]
E. coli. Growth of E. coli in LB medium over 24 hours (Optical Density (OD) 600 nm) after addition
of APIM-peptide variants 1-5 (60 µg/mL) at time t=0 (see Table 2). Negative (-) control is no
bacteria added, positive (+) control is untreated bacteria.
highest inhibition of growth.
control (black filled line).

[12] = test system: S. epidermidis MRSE (SO-SEP9-1); settings: SO-SEP9-1, 24 h
Description: as §2

[13] = test system: E. coli; assay: Rifampicin (RifR) mutagenesis assay after UV-C; type: cell-based, Escherichia coli
Description: The rifampicin (Rif^R) mutagenesis assay was performed as described ([Nedal et al., 2020]). Briefly, an overnight culture of E. coli was diluted 1:1,000 and grown until an OD600 of 0.01. APIM-peptides (20 μg/ml) were added to LB media with glass beads (for uniform distribution of APIM-peptides) and incubated for 30 min at 37°C. The pellets were next collected, resuspended in 500 μl PBS, and exposed to UV-C (20 mJ/cm^2) in a six-well plate at 4°C. The unexposed bacteria (-UV) were otherwise handled exactly like the UV-exposed bacteria. Next, the cells were resuspended in LB media and incubated in a rotary shaker at 37°C at 250 rpm for 2 h before being harvested, diluted, and plated on LB with soft agar with and without rifampicin (100 μg/ml). Mutation frequency, Rif^R/10^8, is obtained as follows: (number of colonies on the rifampicin plate (Rif^R)/(number of colonies on LB plates without antibiotics), per milliliter of bacterial suspension. […]
mutagenesis in E. coli more efficiently than the other peptide variants.
Increase in mutation frequencies after treatment with UV-C (20 mJ/cm2) relative to spontaneous mutations frequencies using the RifR assay were determined. This increase is set to 100% for untreated control, and % reduction after addition of peptides 1-5 (20 μg/mL) are shown. Mean ± SD from three independent experiments. * p<0.05, ** p<0.005

[14] = test system: HEK293 cells
Description: HEK293 cells (6,000 cells/well) were seeded in 96-well microtiter plates. After 4 h, APIM-peptides (12–48 μg/ml) were added, and the cells were incubated without change of media for up to 4 days. Viability was measured using the 3-(4,5-dimethylthiazol-2-yl)-2,5-diphenyltetrazolium bromide (MTT) assay as described ([Gilljam et al., 2009]).
(1 picture or pasted object on this page, not shown here)

[15] = SO-PAE19-1 (multidrug resistant)

CC1(C)S[C@@H]2[C@H](NC(=O)[C@H](N)c3ccccc3)C(=O)N2[C@H]1C(=O)O [Ampicillin, ampicillin]
increase in MIC relative to day 1 [1]: ≤ 64 × | Combination effect with 0.5× MIC betatide ([2]; CCUG 59167 (vanA+), reduced MIC of antibiotic when combined with 0.5× MIC betatide): None | MIC ([2]; 24 h): 2050 µg/mL (≈ 5860 µM) | MIC ([2]; CCUG59167, 24 h): 1 µg/mL (≈ 2.86 µM) | Combination effect with 0.5× MIC betatide ([2]; SO-EFU19-1 (vanB+)): None | MIC ([3]; MG1655, read-out: MIC in E. coli): 16 µg/mL (≈ 45.8 µM)

CO/N=C(\C(=O)N[C@@H]1C(=O)N2C(C(=O)O)=C(COC(C)=O)CS[C@H]12)c1csc(N)n1 [Cefotaxime, cefotaxime]
MIC [4]: > 1020 µg/mL | Combination effect with 0.5× MIC betatide ([5]; ATCC 13883): Additive 2× | MIC ([5]; 24 h): 2050 µg/mL (≈ 4500 µM) | MIC ([5]; ATCC13883, 24 h): 0.13 µg/mL (≈ 0.285 µM) | Combination effect with 0.5× MIC betatide ([5]; SO-KPN19-1 (ESBL-CARBA-D)): None

CC(C)(O/N=C(\C(=O)N[C@@H]1C(=O)N2C(C(=O)[O-])=C(C[n+]3ccccc3)CS[C@H]12)c1csc(N)n1)C(=O)O [Ceftazidime, ceftazidime]
MIC [4]: > 1000 µg/mL | Combination effect with 0.5× MIC betatide ([6]; ATCC 27853): None | MIC ([6]; 24 h): 128 µg/mL (≈ 234 µM) | MIC ([6]; ATCC27853, 24 h): 2 µg/mL (≈ 3.66 µM) | Combination effect with 0.5× MIC betatide [6, 15]: None

CNC(C)C1CCC(N)C(OC2C(N)CC(N)C(OC3OCC(C)(O)C(NC)C3O)C2O)O1 (stereo not drawn) [Gentamicin, gentamicin]
MIC [4]: > 1000 µg/mL | MIC ([7]; ATCC29213, read-out: MIC in S. aureus ATCC 29213, ATCC 29213, values given in method text): 1 µg/mL (≈ 2.09 µM) | MIC ([7]; ATCC29213, read-out: MIC in S. aureus, starting MIC of resistance development assay, CAMHB, strain not differentiated (ATCC 29213 and SO-SAU19-1)): 1 µg/mL | Combination effect with 0.5× MIC betatide ([5]; ATCC 13883): Additive 4× | MIC ([5]; 24 h): 64 µg/mL (≈ 134 µM) | MIC ([5]; ATCC13883, 24 h): 0.5 µg/mL (≈ 1.05 µM) | Combination effect with 0.5× MIC betatide ([5]; SO-KPN19-1 (ESBL-CARBA-D)): Additive 4× | Combination effect with 0.5× MIC betatide ([6]; ATCC 27853): None | MIC ([6]; 24 h): 16 µg/mL (≈ 33.5 µM) | MIC ([6]; ATCC27853, 24 h): 2 µg/mL (≈ 4.19 µM) | Combination effect with 0.5× MIC betatide [6, 15]: None | MIC ([3]; 24 h): > 500 µg/mL | MIC ([3]; MG1655, 24 h): 0.5 µg/mL (≈ 1.05 µM) | Combination effect with 0.5× MIC betatide ([3]; MG1655): None | Combination effect with 0.5× MIC betatide ([8]; ATCC 19606): None | MIC ([8]; 24 h): > 1000 µg/mL | MIC ([8]; ATCC19606, 24 h): 8 µg/mL (≈ 16.8 µM) | increase in MIC relative to day 1 ([9]; S. aureus ATCC 29213, serial passage, first experiment (parallel 1)): ≤ 256 × | increase in MIC relative to day 1 ([9]; S. aureus SO-SAU19-1 (MRSA), 20 passages): 8 ×

CC(=O)NC[C@H]1CN(c2ccc(N3CCOCC3)c(F)c2)C(=O)O1 [Linezolid, linezolid]
Combination effect with 0.5× MIC betatide ([10]; ATCC 29212): None | MIC ([10]; 24 h): 8 µg/mL (≈ 23.7 µM) | MIC ([10]; ATCC29212, 24 h): 2 µg/mL (≈ 5.93 µM) | Combination effect with 0.5× MIC betatide ([10]; SO-EFA19-1 (optrA+)): None

CC[C@H](C)[C@H](NC(=O)CNC(=O)[C@H](CCCCN)NC(=O)[C@@H](NC(=O)[C@H](CC(C)C)NC(=O)[C@H](Cc1c[nH]c2ccccc12)NC(=O)[C@H](CCCNC(=N)N)NC(=O)[C@H](CC(=O)O)NC(=O)[C@H](CCSC)NC(C)=O)C(C)C)C(=O)N[C@@H](CC(C)C)C(=O)N[C@@H](CCC(N)=O)C(=O)N[C@@H](Cc1c[nH]c2ccccc12)C(=O)N[C@@H](CCCNC(=N)N)C(=O)N[C@@H](CCCCN)C(=O)N[C@H](C(=O)N[C@@H](CCCNC(=N)N)C(=O)N[C@@H](CCCNC(=N)N)C(=O)N[C@@H](CCCNC(=N)N)C(=O)N[C@@H](CCCNC(=N)N)C(=O)N[C@@H](CCCNC(=N)N)C(=O)N[C@@H](CCCNC(=N)N)C(=O)N[C@@H](CCCNC(=N)N)C(=O)N[C@@H](CCCNC(=N)N)C(N)=O)[C@@H](C)CC [Peptide 5] (Ac-MDRWLVKGILQWRKIRRRRRRRR-NH2)
Reduction of viability E. coli (60 μg/ml) [11]: ++ | MIC S. epidermidis MRSE [12]: 16 µg/mL (≈ 4.95 µM) | UV-induced mutation frequencies relative to control ([13]; 20 μg/mL, UV-C 20 mJ/cm2, RifR assay, three independent experiments): significantly reduced | Reduction of mutation frequency E. coli (20 μg/ml) ([13]; 20 μg/ml peptide, UV-C 20 mJ/cm^2, RifR assay, relative to untreated control): ++ | Reduction of viability HEK293 (24 μg/ml) [14]: + | MIC E. coli ([3]; K-12 MG1655, CLSI broth microdilution, CAMHB, 37°C, 24 h, visible growth, net peptide concentration): 16 µg/mL (≈ 4.95 µM)
